Measurements published in patent EP4644384A1 (Shanghai Lichun Biotech Co., Ltd., priority 2023, dated 2024).

Each compound was assayed against T1, CYP11A1 (Homo sapiens, UniProt P05108) (assay: Pregnenolone synthesis inhibition in NCI-H295R cells (pregnenolone ELISA of culture supernatant)). Settings: 24 hours incubation, pregnenolone in culture supernatant by ELISA.
T1 construct: host or cells: NCI-H295R human adrenocortical cancer cells
T1 sequence (P05108 40-521): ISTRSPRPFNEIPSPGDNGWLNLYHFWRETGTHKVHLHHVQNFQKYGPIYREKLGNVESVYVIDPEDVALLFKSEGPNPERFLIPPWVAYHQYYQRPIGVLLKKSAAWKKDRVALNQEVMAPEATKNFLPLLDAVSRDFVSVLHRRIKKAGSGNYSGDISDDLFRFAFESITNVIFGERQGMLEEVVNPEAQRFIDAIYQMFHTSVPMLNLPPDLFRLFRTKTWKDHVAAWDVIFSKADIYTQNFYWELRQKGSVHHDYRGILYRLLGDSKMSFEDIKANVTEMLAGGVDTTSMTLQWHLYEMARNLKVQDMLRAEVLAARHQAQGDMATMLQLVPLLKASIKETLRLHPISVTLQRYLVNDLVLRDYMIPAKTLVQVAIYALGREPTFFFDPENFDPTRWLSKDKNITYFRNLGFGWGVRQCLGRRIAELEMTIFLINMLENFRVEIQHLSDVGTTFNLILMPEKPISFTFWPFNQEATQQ
Format: cell-based
Source text: Conversion of cholesterol into pregnenolone is a first rate-limiting step in the synthesis of all steroid hormones in vertebrates. This conversion reaction involves a two-step continuous monooxygenation reaction catalyzed by the unique cytochrome P450scc (CYP11A) to produce C22-hydroxycholesterol and C20,C22-dihydroxycholesterol in order, followed by CYP11A1-catalyzed breakage of a C20-C22 carbon-carbon single bond in C20,C22-dihydroxycholesterol to produce one molecule of pregnenolone and one molecule of 4-methylvaleraldehyde. Therefore, the inhibitory effect of a compound on CYP11A1 was identified by detecting the ability of the compound to inhibit pregnenolone synthesis.
The ability of different compounds to inhibit pregnenolone biosynthesis was determined by detecting the concentration of pregnenolone (Abnova pregnenolone ELISA kit, KA1912) using enzyme-linked immunosorbent assay (ELISA), so as to detect the ability of the compounds to inhibit CYP11A1. […] In order to determine the half-maximal inhibitory concentrations (IC50) of CYP11A1 inhibition by different compounds, the compounds were added during NCI-H295R cell culture, and after incubation, the concentration of pregnenolone in the culture supernatant was determined.
95 µl of NCI-H295R cells were taken and cultured overnight with a specialized cell culture medium (Procell, CM-0399) in a 96-well culture plate in a cell incubator at 37°C and 5% CO2. 5 µl/well of a DMSO (Sigma, D8418) solution of the compounds to be tested at different concentrations was then added, followed by continued incubation for 24 hours. The final concentrations of the compounds to be tested were 1000 nM, 333.33 nM, 111.11 nM, 37.04 nM, 12.35 nM, 4.12 nM, 1.37 nM, 0.46 nM, and 0 nM. After the incubation was complete, the cells were centrifuged, 80 µl/well of the cell culture supernatant was obtained and 1 : 8 diluted with the cell culture medium, and the concentration of pregnenolone therein was then determined by ELISA method. During ELISA detection, a pregnenolone standard was used to generate a standard curve. The experiment was carried out with replicate wells. The ELISA well plate had been coated with an anti-pregnenolone rabbit polyclonal antibody. In ELISA plate strips, 50 µl/well of the diluted culture supernatant or standard solution or reference substance was added, followed by 100 µl of a pregnenolone-HRP complex solution, and the plate was incubated for 1 hour at room temperature on a plate shaker (QILINBEIER, QB-9002) at 200 rpm. Then, the plate was washed three times with a cleaning solution, with 300 µl each time, and patted dry on absorbent paper. 150 µl of a TMB substrate was added. The plate was incubated on the plate shaker for 10-15 minutes at room temperature, and 50 µl of a stop solution was then added. The absorbance was measured at 450 nm by a microplate reader (PerkinElmer, 2105). The IC50 value was calculated by using GraphPad Prism software. [formula]

Row | Compound | IC50
1 | Cn1c(CN2Cc3ccccc3C2)ccc(OCC2CCN(S(=O)(=O)C3COC3)CC2)c1=O [Compound 6] | 1.94 nM
2 | Cn1c(CN2Cc3ccc(F)cc3C2)ccc(OCC2CCN(S(C)(=O)=O)CC2)c1=O [Compound 5, 6-((5-fluoroisoindolin-2-yl)methyl)-1-methyl-3-((1-(methylsulfonyl)piperidine-4-yl)methoxy)pyridin-2(1H)-one] | 8.49 nM
3 | Cn1c(CN2Cc3ccc(F)cc3C2)ccc(OCC2CCN(S(=O)(=O)C3COC3)CC2)c1=O [Compound 12, 6-((5-fluoroisoindolin-2-yl)methyl)-1-methyl-3-((1-(oxetan-3-ylsulfonyl)piperidine-4-yl)methoxy)pyridin-2(1H)-one] | 3.57 nM
4 | CCn1c(CN2Cc3ccccc3C2)ccc(OCC2CCN(S(=O)(=O)C(F)(F)F)CC2)c1=O [Compound 27, 1-ethyl-6-(isoindolin-2-ylmethyl)-3-((1-((trifluoromethyl)sulfonyl)piperidine-4-yl)methoxy)pyridin-2(1H)-one] | 0.136 nM
5 | [2H]C([2H])([2H])n1c(CN2Cc3ccccc3C2)ccc(OCC2CCN(S(C)(=O)=O)CC2)c1=O [Compound 17, 6-(isoindolin-2-ylmethyl)-1-(methyl-d3)-3-((1-(methylsulfonyl)piperidine-4-yl)methoxy)pyridin-2(1H)-one] | 3.76 nM
6 | CC(=O)N1CCC(COc2ccc(CN3Cc4ccccc4C3)n(C)c2=O)CC1 [Compound 7, 3-((1-acetylpiperidine-4-yl)methoxy)-6-(isoindolin-2-ylmethyl)-1-methylpyridin-2(1H)-one] | 9.34 nM
7 | CN(C)S(=O)(=O)N1CCC(COc2ccc(CN3Cc4ccc(C(F)(F)F)cc4C3)n(C)c2=O)CC1 [Compound 22, N,N-dimethyl-4-(((1-methyl-2-oxo-6-((5-(trifluoromethyl)isoindolin-2-yl)methyl)-1,2-dihydropyridin-3-yl)oxy)methyl)piperidine-1-sulfonamide] | 8.61 nM
8 | Cn1c(CN2Cc3ccccc3C2)ccc(OCC2CCN(S(=O)(=O)C3CC3)CC2)c1=O [Compound 3, 3-((1-(cyclopropylsulfonyl)piperidine-4-yl)methoxy)-6-(isoindolin-2-ylmethyl)-1-methylpyridin-2(1H)-one] | 2.25 nM
9 | CN(C)S(=O)(=O)N1CCC(COc2ccc(CN3Cc4ccccc4C3)n(C)c2=O)CC1 [Compound 4, 4-(((6-(isoindolin-2-ylmethyl)-1-methyl-2-oxo-1,2-dihydropyridin-3-yl)oxy)methyl)-N,N-dimethylpiperidine-1-sulfonamide] | 1.74 nM
10 | Cn1c(CN2Cc3ccc(C(F)(F)F)cc3C2)ccc(OCC2CCN(S(=O)(=O)C3CC3)CC2)c1=O [Compound 21, 3-((1-(cyclopropylsulfonyl)piperidine-4-methyl)methoxy)-1-methyl-6-((5-(trifluoromethyl)isoindolin-2-yl)methyl)pyridin-2(1H)-one] | 2.21 nM
11 | [2H]C([2H])([2H])n1c(CN2Cc3ccc(F)cc3C2)ccc(OCC2CCN(S(C)(=O)=O)CC2)c1=O [Compound 24, 6-((5-fluoroisoindolin-2-yl)methyl)-1-(methyl-d3)-3-((1-(methylsulfonyl)piperidine-4-yl)methoxy)pyridin-2(1H)-one] | 4.86 nM
12 | [2H]C([2H])([2H])n1c(CN2Cc3ccc(C(F)(F)F)cc3C2)ccc(OCC2CCN(S(C)(=O)=O)CC2)c1=O [Compound 14, 1-(methyl-d3)-3-((1-(methylsulfonyl)piperidine-4-yl)methoxy)-6-((5-(trifluoromethyl)isoindolin-2-yl)methyl)pyridin-2(1H)-one] | 4.75 nM
13 | Cn1c(CN2Cc3ccc(C(F)(F)F)cc3C2)ccc(OCC2CCN(S(C)(=O)=O)CC2)c1=O [Compound 13, 1-methyl-3-((1-(methylsulfonyl)piperidine-4-yl)methoxy)-6-((5-(trifluoromethyl)isoindolin-2-yl)methyl)pyridin-2(1H)-one] | 12 nM
14 | [2H]C([2H])([2H])n1c(CN2Cc3ccc(F)cc3C2)ccc(OCC2CCN(S(=O)(=O)C3COC3)CC2)c1=O [Compound 15, 6-((5-fluoroisoindolin-2-yl)methyl)-1-(methyl-d3)-3-((1-(oxetan-3-ylsulfonyl)piperidine-4-yl)methoxy)pyridin-2(1H)-one] | 3.99 nM
15 | CCn1c(CN2Cc3ccccc3C2)ccc(OCC2CCN(S(=O)(=O)NC)CC2)c1=O [Compound 29, 4-(((1-ethyl-6-(isoindolin-2-ylmethyl)-2-oxo-1,2-dihydropyridin-3-yl)oxy)methyl)-N-methylpiperidine-1-sulfonamide] | 14.8 nM
16 | [2H]C([2H])([2H])n1c(CN2Cc3ccc(C(F)(F)F)cc3C2)ccc(OCC2CCN(S(=O)(=O)C3CC3)CC2)c1=O [Compound 19, 3-((1-(cyclopropylsulfonyl)piperidine-4-yl)methoxy)-1-(methyl-d3)-6-((5-(trifluoromethyl)isoindolin-2-yl)methyl)pyridin-2(1H)-one] | 7.8 nM
17 | Cn1c(CN2Cc3ccc(C(F)(F)F)cc3C2)ccc(OCC2CCN(S(=O)(=O)C3COC3)CC2)c1=O [Compound 23, 1-methyl-3-((1-(oxetan-3-ylsulfonyl)piperidine-4-yl)methoxy)-6-((5-(trifluoromethyl)isoindolin-2-yl)methyl)pyridin-2(1H)-one] | 3.57 nM
18 | CS(=O)(=O)N1CCC(COc2ccc(CN3Cc4ccccc4C3)[nH]c2=O)CC1 [Compound 2, 6-(isoindolin-2-ylmethyl)-3-((1-(methylsulfonyl)piperidine-4-yl)methoxy)pyridin-2(1H)-one] | 222 nM
19 | [2H]C([2H])([2H])n1c(CN2Cc3ccc(F)cc3C2)ccc(OCC2CCN(S(=O)(=O)C3CC3)CC2)c1=O [Compound 20] | 1.94 nM
20 | CN(C)S(=O)(=O)N1CCC(COc2ccc(CN3Cc4ccc(F)cc4C3)n(C)c2=O)CC1 [Compound 11, 4-(((6-((5-fluoroisoindolin-2-yl)methyl)-1-methyl-2-oxo-1,2-dihydropyridin-3-yl)oxy)methyl)-N,N-dimethylpiperidine-1-sulfonamide] | 1.98 nM
